The values below come from ChEMBL document CHEMBL1129467, “Synthesis and HIV inhibition activity of 2',3'-dideoxy-3'-C-hydroxymethyl nucleosides” (1996).

Where “and” joins values, the source holds several entries; their conditions need not be identical. Identical values can stand only once.

Format in all cases: functional, Homo sapiens
The subject of assay [1] is H9. The assay can be described thus: Compound was tested for the cytotoxicity in H-9 cells infected with HIV-IIIB over 14 days.
Assay [2] relates to H9. The assay can be described thus: Compound was tested for the cytotoxicity in H-9 cells infected with HIV-IIIB over 7 days.
In assay [3] the test system is H9. The assay can be described thus: Compound was tested for the inhibiting acute infection of H9 cells over 14 days 1 mM.
Assay [4] deals with H9. Nature of the assay: (§1) Compound was tested for the inhibiting acute infection of H9 cells over 7 days at 50 mM.
Assay [5] relates to H9. The assay can be described thus: Compound was tested for the inhibiting acute infection of H9 cells over 7 days at 1 mM.
Assay [6] has as its system H9. Nature of the assay: Compound was Tested for the inhibiting acute infection of H9 cells over 7 days at 1 mM.
Assay [7] concerns H9. The assay can be described thus: Compound was tested for the effective inhibiting acute infection of H9 cells over 7 days at 100 mM.
In assay [8] the test system is H9. Nature of the assay: Compound was tested for the effective inhibiting acute infection of H9 cells over 7 days at 50 mM.
For assay [9], the system named is H9. The assay is described as §1. This is another data set of the same source.
For assay [10], the system named is H9. The assay can be described thus: Compound was tested for the cytotoxicity in H-9 cells infected with HIV-IIIB over 9 days.

As for `CCCCCCOc1ncnc2c1ncn2[C@H]1C[C@H](CO)[C@@H](CO)O1`, the P24 concentration in the assay with H9 [1] was 80 ng/mL; with H9 [2], 1 ng/mL; with H9 [3], 90 ng/mL; with H9 [4] it was 1 ng/mL and 3 ng/mL; in the assay on H9 [5], 2 ng/mL.

Regarding `COc1ncnc2c1ncn2[C@H]1C[C@H](CO)[C@@H](CO)O1`, the P24 concentration in the assay with H9 [1] is 6 ng/mL; in the assay on H9 [2] it was 12 ng/mL; with H9 [5], 80 ng/mL.

Consider `Nc1ncnc2c1ncn2[C@@H]1C[C@H](CO)[C@@H](CO)O1`, for which the P24 concentration with H9 [1] is 80 ng/mL; in the assay on H9 [2], 10 ng/mL.

As for `OC[C@H]1C[C@H](n2cnc3cncnc32)O[C@@H]1CO`, the P24 concentration is 80 ng/mL in the assay with H9 [1] and 8 ng/mL in the assay with H9 [2].

Regarding `OC[C@H]1C[C@@H](n2cnc3c(Cl)ncnc32)O[C@@H]1CO`, the P24 concentration in the assay with H9 [1] came to 80 ng/mL; in the assay on H9 [2], 2 ng/mL.

For the compound `COc1ncnc2c1ncn2[C@@H]1C[C@H](CO)[C@@H](CO)O1`, the P24 concentration in the assay on H9 [1] was determined as 80 ng/mL; in the assay on H9 [2] it was 5 ng/mL.

Consider `Nc1ncnc2c1ncn2[C@H]1C[C@H](CO)[C@@H](CO)O1`, for which the P24 concentration in the assay with H9 [6] is 6 ng/mL; in the assay on H9 [1], 2 ng/mL; in the assay with H9 [2] it was 0.5 ng/mL; with H9 [3], 90 ng/mL; with H9 [4] it was 0.5 ng/mL and 1 ng/mL; in the assay on H9 [7] it was 0.1 ng/mL. Also, the P24 concentration with H9 [8] worked out at 100 ng/mL.

Regarding `OC[C@H]1C[C@@H](n2cnc3cncnc32)O[C@@H]1CO`, the P24 concentration in the assay on H9 [1] was 80 ng/mL; with H9 [2] it was 12 ng/mL; with H9 [3], 90 ng/mL; in the assay with H9 [4], 90 ng/mL; with H9 [9], 14 ng/mL; in the assay on H9 [5] it was 6 ng/mL.

As to `CCCCCCOc1ncnc2c1ncn2[C@@H]1C[C@H](CO)[C@@H](CO)O1`, the P24 concentration in the assay with H9 [1] came out at 80 ng/mL; with H9 [2] it was 4 ng/mL.

With `OC[C@H]1C[C@H](n2cnc3c(Cl)ncnc32)O[C@@H]1CO`, the P24 concentration with H9 [1] worked out at 80 ng/mL; with H9 [2], 2 ng/mL.

For `Cc1cn([C@H]2C[C@H](N=[N+]=[N-])[C@@H](CO)O2)c(=O)[nH]c1=O` [ZIDOVUDINE], the P24 concentration in the assay with H9 [2] was 100 ng/mL; in the assay with H9 [10] it was 600 ng/mL.
